Positions count from the first letter of the chain named. pIC50: −log10 of the molar value. Square brackets hold non-standard residues; d marks the D form. Peptide text beside a SMILES is read from it. * marks the point of attachment. Cha = N[C@@H](CC1CCCCC1)C(=O)O; Piv = CC(C)(C)C(=O)*; Mpa = O=C(O)CCS
Columns and labels:
thrombin = thrombin (Homo sapiens, UniProt P00734); assay: Inhibition of thrombin-induced platelet activation (ATP secretion) by thrombin inhibitor peptides; format: cell-based
Description: (§1) About 20 μl Chromolume® reagent (Chronolog Corporation, Havertown, Pa.) is added. In addition to measuring aggregation, ATP secretion is assessed. […] Platelet ATP secretion is measured in a lumiaggregometer as luminescence signal. […] Preincubation is not necessary for testing agonists or antagonists which interact directly with the receptor.
Three antagonist peptides of the invention […] (LDPRP peptide) (SEQ ID NO:74), F^†[…] (F^†PRP peptide) (SEQ ID NO:224) and […] (shortened LDPRP peptide) (SEQ ID NO:190), were tested for their ability to inhibit thrombin-induced platelet activation. […] The mixtures were added in a total volume of 20 μl phosphate buffered saline to 480 μl of platelets prepared and suspended as described in the description under the heading “Assays” hereinabove. Various concentrations of the candidate peptides were used.

thrombin receptor = molecular target: T1, thrombin receptor (Homo sapiens, UniProt P25116); assay: Platelet activation/aggregation assays in the presence of thrombin, antagonist peptides; format: cell-based; conditions: read-out: IC50 (50% inhibition of activation or aggregation)
T1 construct: In this assay, washed human platelets are prepared by the method of Baenzinger; endogenous in cells; host or cells: washed human platelets
T1 sequence (P25116 22-425): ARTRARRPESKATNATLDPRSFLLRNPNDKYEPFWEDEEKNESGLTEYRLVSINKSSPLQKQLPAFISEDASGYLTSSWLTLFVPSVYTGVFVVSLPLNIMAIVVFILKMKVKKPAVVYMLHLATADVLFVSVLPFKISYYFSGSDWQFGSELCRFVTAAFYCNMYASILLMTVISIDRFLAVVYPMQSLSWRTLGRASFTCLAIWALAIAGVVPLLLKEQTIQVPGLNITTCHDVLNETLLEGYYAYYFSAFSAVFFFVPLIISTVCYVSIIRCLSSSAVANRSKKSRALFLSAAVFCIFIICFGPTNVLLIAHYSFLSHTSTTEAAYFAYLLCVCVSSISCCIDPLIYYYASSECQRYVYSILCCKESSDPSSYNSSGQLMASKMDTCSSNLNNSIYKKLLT
Description: Platelet Aggregation: In this assay, washed human platelets are prepared by the method of Baenzinger, M. G., Meth Enzymol (1974) 31:149–155, or as described by Charo, I. F., et al., J Clin Invest (1977) 63:866–873.
Washed platelets are suspended in modified Tyrode's buffer, pH 7.4 with 2 mM magnesium and 1 mM calcium at a concentration of 10^8 platelets/ml.
as §1
Platelet Aggregation Assay Using Microtiter Plates: Thrombin- or agonist-mediated platelet aggregation as measured with washed platelets in 96-well microtiter plates was performed as described (Fratantoni, J. C. et al., Am J Clin Pathol (1990) 94:613–617).

[1] = molecular target: T2, wild-type thrombin receptor (Homo sapiens, UniProt P25116, C364S/L238V); assay: ^45Ca release by oocytes expressing wild-type thrombin receptor cRNA; format: cell-based; conditions: control peptide added at 100 μM
T2 construct: expressed in transfected cells; host or cells: Xenopus laevis oocytes microinjected with cRNA
T2 sequence (P25116 22-425 L238V/C364S): T1 sequence (P25116 22-425) with L217V, C343S
Description: (§2) Briefly, intracellular calcium pools are labeled by incubating groups of 30 oocytes in 300 μl calcium-free MBSH containing 50 μCi ^45CaCl2 (10–40 mCi/mg Ca; Amersham) for 4 hours at RT. The labeled oocytes are washed, then incubated in MBSH II without antibiotics for 90 minutes. Groups of 5 oocytes are selected and placed in individual wells in a 24-well tissue culture plate (Falcon 3047) containing 0.5 ml/well MBSH II without antibiotics. This medium is removed and replaced with fresh medium every 10 minutes; the harvested medium is analyzed by scintillation counting to determine ^45Ca released by the oocytes during each 10-minute incubation. The 10-minute incubations are continued until a stable baseline of ^45Ca release per unit time is achieved. Two additional 10-minute collections are obtained, then test medium including agonist is added and agonist-induced ^45Ca release determined.
(§3) The control peptide […] (FSLL peptide) (SEQ ID NO:107) was added at 100 μM and elicited no response.

washed human platelets [2] = molecular target: T3, washed human platelets (Homo sapiens, UniProt P25116); assay: Platelet ATP secretion in response to agonist peptide; format: cell-based; conditions: for Platelet ATP secretion activity of control peptides: concentrations as high as 200 μM (not shown)
T3 sequence (P25116 42-425): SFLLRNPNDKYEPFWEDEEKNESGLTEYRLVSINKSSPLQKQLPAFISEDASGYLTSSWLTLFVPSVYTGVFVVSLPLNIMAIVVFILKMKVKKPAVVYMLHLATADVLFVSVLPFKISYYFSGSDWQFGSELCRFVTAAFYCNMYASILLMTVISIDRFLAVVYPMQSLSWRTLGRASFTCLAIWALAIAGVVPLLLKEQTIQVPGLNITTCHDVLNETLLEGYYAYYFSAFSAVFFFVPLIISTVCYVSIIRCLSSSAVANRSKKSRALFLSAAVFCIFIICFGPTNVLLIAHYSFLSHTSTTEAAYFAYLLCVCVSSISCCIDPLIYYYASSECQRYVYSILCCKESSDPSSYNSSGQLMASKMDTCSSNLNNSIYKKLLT
Description: as §1
Washed human platelets were prepared as described by Baenzinger, N. G., Meth Enz (1974) 31:149–155; and Charo, I. F., et al., J Clin Invest (1977) 63:866–873. Agonist-induced responses were assessed as described above.
Platelet ATP secretion in response to the indicated final concentrations of “new amino-terminal” peptide was also followed by lumiaggregometry, and the results are shown in FIG. 4.
The data shown in FIG. 4 are raw tracings representative of aggregation or secretion responses obtained in triplicate for each agonist concentration, and are representative of results obtained in more than five separate experiments.

washed human platelets [3] = molecular target: T3, washed human platelets; conditions: for Platelet aggregation activity of control peptides: concentrations as high as 200 μM (not shown)
uninjected oocytes = assay: Agonist activity on uninjected oocytes; format: cell-based, Xenopus laevis; conditions: uninjected oocytes (not shown)
Description: as §2, §3
The agonist SFLL peptide has no activity on uninjected oocytes (not shown). Qualitatively identical results were obtained when agonist-induced inward current in voltage-clamped oocytes was used as an endpoint rather than agonist-induced ^45Ca release.

CCL-39 cells = assay: Mitogenic effect, tritiated thymidine incorporation in CCL-39 fibroblasts; format: cell-based, hamster; conditions: 100 μM, 48 hours, quiescent CCL-39 in serum-free medium; FIG. 5
Description: The fibroblast cell line CCL-39 was made quiescent in serum-free medium and then treated for 48 hours with the candidate agonist in the presence of tritiated thymidine. The incorporation of label into DNA was then determined as TCA-insoluble activity, shown as cpm in FIG. 5 using standard techniques. The data shown in the figure represent the mean of six replicate determinations plus or minus 95% confidence.

Compound: CC(C)C[C@H](NC(=O)[C@H](CC(C)C)NC(=O)[C@H](Cc1ccccc1)NC(=O)[C@@H]1CCCN1C(=O)[C@H](CCCNC(=N)N)NC(=O)[C@@H]1CCCN1C(=O)[C@H](N)Cc1ccccc1)C(=O)N[C@@H](CCCNC(=N)N)C(=O)N[C@@H](CC(N)=O)C(=O)N1CCC[C@H]1C(=O)N[C@@H](CC(N)=O)C(=O)N[C@@H](CC(=O)O)C(=O)N[C@@H](CCCCN)C(=O)N[C@@H](Cc1ccc(O)cc1)C(=O)N[C@@H](CCC(=O)O)C(=O)N1CCC[C@H]1C(=O)N[C@@H](Cc1ccccc1)C(=O)N[C@@H](Cc1c[nH]c2ccccc12)C(=O)N[C@@H](CCC(=O)O)C(=O)N[C@@H](CC(=O)O)C(=O)N[C@@H](CCC(=O)O)C(=O)N[C@@H](CCC(=O)O)C(=O)N[C@@H](CCCCN)C(=O)N[C@@H](CC(N)=O)C(=O)N[C@@H](CCC(=O)O)C(=O)N[C@@H](CO)C(=O)O [F^†PRP peptide] (H-[dF]PRPFLLRNPNDKYEPFWEDEEKNES-OH)
- pIC50 (thrombin): ~6.70

Compound: C[C@H](NC(=O)[C@H](CC(=O)O)NC(=O)[C@H](CC(N)=O)NC(=O)[C@@H]1CCCN1C(=O)[C@H](CC(N)=O)NC(=O)[C@H](CCCNC(=N)N)NC(=O)[C@H](CC1CCCCC1)NC(=O)[C@H](CC1CCCCC1)NC(=O)[C@H](Cc1ccccc1)NC(=O)CCS)C(N)=O [Mpr-F(Cha) (Cha)RNPNDA-NH2] ([Mpa]F[Cha][Cha]RNPNDA-NH2)
- pIC50 (thrombin receptor): 4.30

Compound: N=C(N)NCCC[C@H](NC(=O)[C@H](CC1CCCCC1)NC(=O)[C@H](CC1CCCCC1)NC(=O)[C@H](Cc1ccccc1)NC(=O)CCS)C(=O)N[C@@H](CC(N)=O)C(=O)N1CCC[C@H]1C(=O)N[C@@H](CC(N)=O)C(=O)N[C@@H](CC(=O)O)C(=O)N[C@@H](CCCCN)C(=O)N[C@@H](Cc1ccc(O)cc1)C(N)=O [Mpr-F(Cha) (Cha)RNPNDKY-NH2] ([Mpa]F[Cha][Cha]RNPNDKY-NH2)
- pIC50 (thrombin receptor): 4.12

Compound: N=C(N)NCCC[C@H](NC(=O)[C@H](CC1CCCCC1)NC(=O)[C@H](CC1CCCCC1)NC(=O)[C@H](Cc1ccccc1)NC(=O)CCS)C(=O)N[C@@H](CC(N)=O)C(=O)N1CCC[C@H]1C(=O)N[C@@H](CC(N)=O)C(=O)N[C@@H](CC(=O)O)C(=O)N[C@@H](CCCCN)C(=O)N[C@@H](Cc1ccc(O)cc1)C(=O)O [Mpr-F(Cha) (Cha)RNPNDKY] ([Mpa]F[Cha][Cha]RNPNDKY-OH)
- pIC50 (thrombin receptor): 4.40

Compound: CC(C)C[C@H](NC(=O)[C@H](CC(C)C)NC(=O)[C@H](Cc1ccccc1)NC(=O)C(C)(C)C)C(=O)N[C@@H](CCCNC(=N)N)C(N)=O [Pivaloyl-FLLR-NH2] (Piv-FLLR-NH2)
- pIC50 (thrombin receptor): 3.00

Compound: FSLLRNPNDKYEPF [FSLL peptide]
- peptide-induced ^45Ca release response [1]: no response
- Platelet ATP secretion activity of control peptides (washed human platelets [2]): without activity
- Platelet aggregation activity of control peptides (washed human platelets [3]): without activity

Compound: LLRNPNDKYEPF [reference compound]
- Platelet ATP secretion activity of control peptides (washed human platelets [2]): without activity
- Platelet aggregation activity of control peptides (washed human platelets [3]): without activity

Compound: SFLLRNPNDKYEPF [“SFLL” peptide]
- agonist activity on uninjected oocytes (uninjected oocytes): no activity
- Platelet ATP secretion compared with thrombin (washed human platelets [2]; peptide at 100 μM, FIG. 4): comparably active to 20 μM thrombin
- mitogenic effect (tritiated thymidine incorporation into DNA) (CCL-39 cells): significant stimulation of growth
- Platelet aggregation compared with thrombin (washed human platelets [3]; peptide at 100 μM, FIG. 4): comparably active to 20 μM thrombin

From US7119182B1 (The Regents of the University of California, priority 1991, dated 2006)
